Source: PMC4564450, “Oral and inhaled p38 MAPK inhibitors: effects on inhaled LPS challenge in healthy subjects” (European Journal of Clinical Pharmacology, 2015)

Assays:
[1] = test system: p38 MAPK; details: no reference given; read-out: enzyme IC50; cited from earlier work
[2] = test system: IL-6, MCP-1, MIP1β, CC16, fibrinogen and CRP levels in plasma; assay: Inhaled LPS challenge: plasma protein biomarkers; type: in vivo, human; details: study 2; for Plasma CC16, mean / Plasma CRP, mean / Plasma Fibrinogen, mean / Plasma IL-6, mean / Plasma MCP-1, mean / Plasma MIP-1β, mean: PH-797804 30 mg oral or PF-03715455 20 mg inhaled, 6 hrs post LPS
Method: Blood samples were obtained in studies 2 and 3 to obtain plasma measurements of IL-6, MCP-1, MIP1β, CC16, fibrinogen and CRP levels; pre-dose and 6 h post-LPS samples were used for statistical analysis. This coincided with the timings of sputum measurements of inflammation biomarkers.
Systemic biomarkers were analysed using a similar mixed effects model; these models also adjusted for pre-dose baseline values, which were obtained 24 h prior to LPS challenge in study 2 and 30 min prior to LPS challenge in study 3.

[3] = test system: IL-6, MPO, MCP-1 and MIP-1β in sputum supernatant; assay: Inhaled LPS challenge: sputum supernatant protein biomarkers; type: in vivo, human; details: for Sputum IL-6, mean / Sputum MCP-1, mean / Sputum MIP-1β, mean / Sputum MPO, mean: post LPS
Method: A baseline sputum sample was obtained within 14 days of the first study period when subjects were administered a single dose of randomised treatment. […] Induced sputum was obtained 6 h later to coincide with the maximal inflammatory response caused by inhaled LPS. A washout period of at least 21 days followed, with subjects returning after 14 days of the washout period for induced sputum sampling; this was performed to ensure that the total cell count, total neutrophil count and total macrophage count were within the range of −80 to +100 % of the screening values. […] If these criteria were not met, then up to two repeat visits to obtain sputum were allowed, with at least 4 days between sputum inductions. The next randomised treatment day was scheduled at least 4 days after sputum induction and was identical to the first treatment day.
For each challenge, a 1-mg vial of lyophilised LPS (Escherichia coli serotype O26:B6, ref. L-2654, Sigma-Aldrich, Dorset, UK) was diluted with 4 mL of 0.9 % w/v sodium chloride. The reconstitution produced a 0.25 mg/mL solution, of which 2 mL was placed into the pre-calibrated dosimeter pot and administered via five inhalations from a breath-activated dosimeter (Mefar dosimeter MB3, Brescia, Italy). Each inhalation was performed over 3 s with a 6-s breath hold.
Sputum was induced using normal saline after inhalation of salbutamol, and processing was performed using dithiothreitol (DTT) as previously described [20]. The supernatants were stored at −80 °C for later analysis, while cells were used to produce cytoslides (Cytospin 4, Shandon, Runcorn, UK) for differential cell counting and immunocytochemistry. Cytoslides for differential cell count were fixed in methanol (Sigma) and then stained with Rapi-Diff® (GCC Diagnostics, Sandyhurst, UK) or Wright-modified Giemsa (Accustatin WG-18, Sigma-Aldrich); a minimum of 400 non-squamous cells were counted and differential cell counts obtained as percentage of total non-squamous cells. Cell viability was analysed by trypan blue exclusion. Cytoslides with % squamous cell counts <20 % were deemed to be of acceptable quality for differential cell counting. Unfixed cytoslides were wrapped in aluminium foil and stored frozen at −80 °C for immunocytochemistry.
In studies 1 and 2, sputum supernatants were analysed for interleukin 6 (IL-6), myeloperoxidase (MPO), monocyte chemotactic protein-1 (MCP-1) and macrophage inflammatory protein-1β (MIP-1 β), using electrochemiluminescent immunoassays (ECLIA) or enzyme-linked immunosorbent assays (ELISA); the manufacturers are listed in the online supplement. In study 3, sputum supernatants were analysed for IL-6, MCP-1 and MIP-1β by the same method.

[4] = test system: phospho-p38 expression in sputum macrophages; assay: Immunocytochemistry of sputum macrophages: phospho-p38; type: in vivo, human; details: study 2; for mean percentage of macrophages expressing phospho-p38: PH-797804 30 mg oral or PF-03715455 20 mg inhaled, Post-LPS
Method: Frozen cytospins created from sputum cells were analysed for phosphorylated-Heat Shock Protein 27 (phospho-HSP27) and phospho-p38 expression in sputum macrophages. The methods are fully described in the online supplement. Phospho-p38 and phospho-HSP27 immunoreactivity is presented as percentage of the macrophage population. All analyses were carried out by blinded observers.
Frozen cytospins created from sputum cells were thawed and the cells were fixed in 4% paraformaldehyde in PBS for 10 minutes at room temperature, followed by blocking in normal serum. Cytospins were then incubated with the following primary antibodies overnight at 4 °C; anti-human phosphorylated-p38 (phospho-p38) MAPK (Thr180/Tyr182) antibody (Cat No. 9211S, New England Biolabs, Herts, UK) or phosphorylated-Heat Shock Protein 27 (phospho-HSP27 [Cat No. S82, New England Biolabs]) diluted 1:50 in 1.5% normal serum with 0.5% Triton X-100 (Sigma-Aldrich). Endogenous peroxidase was quenched by incubating cytospins in 3% H2O2 in methanol (0.3% for phospho-p38). Phospho-p38 and phospho-HSP27 were detected using biotinylated goat anti-rabbit IgG secondary antibody (Vector Labs, Peterborough, UK) in conjunction with an avidin–biotin peroxidase complex (Vector Labs) and 3,3’-diaminobenzidine (DAB) substrate. Cell nuclei were counterstained with Gill’s haematoxylin (Sigma-Aldrich). Omission of primary antibody in staining protocol was used as a negative control.
Digital micrographs were obtained through the use of a Nikon Eclipse 80i microscope (Nikon UK Ltd, Surrey, UK) equipped with a QImaging digital camera (Media cybernetics, Marlow, UK) and ImageProPlus 5.1 software (Media Cybernetics). Sputum macrophages (determined by morphology) were analysed for phospho-p38 and phospho-HSP27 expression following single label immunohistochemistry utilising the ImagePro Plus image analysis software; at least 200 macrophages per cytospin were counted. Phospho-p38 and phospho-HSP27 immunoreactivity was presented as percentage of the macrophage population. All analysis was carried out by blinded observers.

[5] = cited from earlier work
[6] = study 2, PH-797804 30 mg oral or PF-03715455 20 mg inhaled

For `CC(C)(C)c1cc(NC(=O)NCc2ccccc2Sc2ccc3nnc(-c4ccccc4SCCO)n3c2)n(-c2ccc(O)c(Cl)c2)n1` [PF-03715455], the IC50 [1] is given as 5 to 50 pM, the “plasma IL-6, MCP-1, MIP1β and CC16 compared to placebo” value ([2]; PF-03715455 20 mg inhaled, 6 h post-LPS challenge) is given as “statistically significant reductions” and the “Plasma CC16, mean” value [2] is given as 10.19 ng/mL. The “Plasma CRP, mean” value [2] was 475.90 ng/mL, the “Plasma Fibrinogen, mean” value [2] was 2340.40 µg/mL and the “Plasma IL-6, mean” value [2] was 14.43 pg/mL. The “Plasma MCP-1, mean” value [2] was 340.30 pg/mL, the “Plasma MIP-1β, mean” value [2] was 71.55 pg/mL and the “sputum supernatant IL-6, MPO, MCP-1 and MIP-1β levels compared to placebo” value [3, 6] was “no effects”. For the same molecule, the “Sputum IL-6, mean” value [3, 6] was 91.67 pg/mL, the “Sputum MCP-1, mean” value [3, 6] was 115.38 pg/mL and the “Sputum MIP-1β, mean” value [3, 6] was 396.35 pg/mL. For the same molecule, the “Sputum MPO, mean” value [3, 6] was 937.04 ng/mL, the “attenuation of the baseline measurements (macrophages expressing phospho-P38 and phospho-HSP27)” value ([4]; PF-03715455 20 mg inhaled) was 45–50% and the “mean percentage of macrophages expressing phospho-p38” value [4] was 25.03%.

For `CNC(=O)c1ccc(C)c(-n2c(C)cc(OCc3ccc(F)cc3F)c(Br)c2=O)c1` [PH-797804], the “improvement of FEV1” value ([5]; COPD patients treated for 6 weeks) is given as 93 mL, the pulmonary function ([5]; COPD trial) is given as “clinically significant improvement” and the “tolerability in COPD trials” value ([5]; oral, up to 24-week duration) is given as “well tolerated”. For the same molecule, the “Plasma CC16, mean” value [2] was 9.34 ng/mL, the “Plasma CRP, mean” value [2] was 462.10 ng/mL and the “Plasma Fibrinogen, mean” value [2] was 2172.70 µg/mL. The “Plasma IL-6, mean” value [2] was 5.47 pg/mL, the “Plasma MCP-1, mean” value [2] was 261.50 pg/mL and the “Plasma MIP-1β, mean” value [2] was 33.82 pg/mL. The “plasma IL-6, MIP1β, MCP-1, CC16 and CRP levels compared to placebo” value ([2]; PH-797804 30 mg oral, 6 h post-LPS challenge) was “statistically significant reductions”, the “Sputum IL-6, mean” value ([3]; study 1, PH-797804 30 mg oral) was 29.66 pg/mL and the “Sputum MCP-1, mean” value ([3]; study 1, PH-797804 30 mg oral) was 155.07 pg/mL. The “Sputum MIP-1β, mean” value ([3]; study 1, PH-797804 30 mg oral) was 330.54 pg/mL, the “Sputum MPO, mean” value ([3]; study 1, PH-797804 30 mg oral) was 669.06 ng/mL and the “sputum supernatant cytokine levels compared to placebo” value ([3]; study 1, PH-797804 30 mg oral, trends towards significance for MCP-1 and MPO) was “did not significantly inhibit”. For the same molecule, the “sputum supernatant IL-6, MPO, MCP-1 and MIP-1β levels compared to placebo” value [3, 6] was “significantly reduced”, the “Sputum IL-6, mean” value [3, 6] was 69.02 pg/mL and the “Sputum MCP-1, mean” value [3, 6] was 133.41 pg/mL. For the same molecule, the “Sputum MIP-1β, mean” value [3, 6] was 609.10 pg/mL, the “Sputum MPO, mean” value [3, 6] was 485.28 ng/mL and the “mean percentage of macrophages expressing phospho-p38” value [4] was 38.00%.
